# Results taken from patent US9067974B2, “Polymyxin derivatives and uses thereof” (priority 2006, dated 2015).
# Bridge positions count the residues as written; N and C are the ends. Square brackets hold non-standard residues; d marks the D form. Peptide text beside a SMILES is read from it. * marks the point of attachment. Octanoyl = CCCCCCCC(=O)*; Dab = NCC[C@H](N)C(=O)O; Abu = CC[C@H](N)C(=O)O
# How the values were obtained:
# E. cloacae F232 = assay: E-test MIC of antibiotics on Mueller-Hinton agar with or without NAB7061 (4 μg/ml); sensitization factor = MIC ratio absence/presence; assay type: cell-based, Enterobacter cloacae
# Method: (§1) MICs were determined by using E-strips (Biodisk Ltd., Solna, Sweden) according to the manufacturer's instructions.
# (§2) The strains originated from ATCC (11 strains), CCUG (11 strains), and NCTC (The National Collection of Type Cultures, Colindale, U.K.; 2 strains). Eight strains (the F-strains) were purchased from Mobidiag Ltd., Helsinki, Finland. The source of E. coli IH3080 has been given in Example 2. Sensitization factor was defined as in Example 7.
# E. cloacae F230 = assay: as above; assay type: cell-based, Enterobacter cloacae
# Method: as §1, §2
# E. cloacae CCUG52947 = assay: as above; assay type: cell-based, Enterobacter cloacae
# Method: as §1, §2
# E. coli IH3080 = assay: Sensitization to rifampin: well diffusion growth inhibition on LB plates containing rifampin; assay type: cell-based, Escherichia coli; settings: 4 μg of compound
# [1] = system: three strains of A. baumannii; assay: E-test sensitization by NAB7061 (4 μg/ml), summary over A. baumannii strains; assay type: cell-based, Acinetobacter baumannii
# From the text: as §2
# Strains of K. pneumoniae remained somewhat more resistant to both antibiotics, and the sensitization factors varied between 10 and 500.
# E. coli IH3080 (K1:O18) = assay: Experimental E. coli peritonitis model in mice; assay type: in vivo; settings: 4.5 h postinfection ([…] after the treatment), 5 mg/kg subcutaneous
# Method: A suspension of E. coli IH3080 (K1:O18) in saline (0.9% NaCl) was prepared from an overnight culture on a blood agar plate (Statens Serum Institut, Copenhagen, Denmark). All mice (female NMR1 from Harlan Scandinavia, Allerød, Denmark; weight, 25-30 g) were inoculated intraperitoneally with 0.5 ml of the suspension containing 0.96×10^6 CFU per ml in the lateral lower quadrant of the abdomen. At 1 h, the CFU count was determined from three mice and the remaining mice (four mice per group) were treated with a subcutaneous injection of 0.2 ml of erythromycin solution in saline (corresponding to 5 mg/kg body weight) or NAB7061 solution in saline (corresponding to 5 mg/kg body weight), or both erythromycin and NAB7061 (corresponding to 5 mg/kg body weight of both drugs; given at two separate sites). Control group received two 0.2 ml injections of saline. At 4.5 h postinfection, all mice were anaesthetized with CO2 and sacrificed. Sterile saline (2 ml) was injected intraperitoneally and the abdomen was gently massaged before it was opened and the fluid sampled. Appropriate dilutions of the fluid were plated on blood agar plates, the plates were incubated overnight, and the colonies were counted.
# [2] = system: Pseudomonas aeruginosa ATCC 27853; assay: Well diffusion growth inhibition on LB agar plates (direct antibacterial activity); assay type: cell-based; settings: Ps. aeruginosa ATCC 27853
# In short: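 Pseudomonas aeruginosa ATCC 27853 was tested for direct antibacterial susceptibility by agar well diffusion. A suspension of about 10^8 cells/ml in 0.9% NaCl was spread over LB agar and the excess removed. After drying, 2 mm wells were drilled and filled with compound dissolved in 0.9% NaCl, with NaCl alone as control. Plates were incubated 18 h at 37° C, and inhibition zone diameters were measured and converted to areas in square mm.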
# [3] = system: Acinetobacter baumannii ATCC 19606; assay: as above; assay type: cell-based; settings: A. baumannii ATCC 19606
# In short: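 Direct antibacterial activity against Acinetobacter baumannii ATCC 19606 was measured by agar well diffusion on LB plates. The plates were flooded with a suspension of approx. 10^8 cells/ml in 0.9% NaCl, and the excess was removed. Once the surface dried, five wells of 2 mm diameter were drilled per plate. The wells were filled with test compound dissolved in 0.9% NaCl, with plain 0.9% NaCl as control. After 18 h at 37° C., inhibition zone diameters were measured and converted to growth inhibition areas in square mm.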
structure (smiles),measurement,setting,value
"CCCCCCCC(=O)N[C@H](C(=O)N[C@@H](CC)C(=O)N[C@H]1CCNC(=O)[C@H]([C@@H](C)O)NC(=O)[C@H](CCN)NC(=O)[C@H](CCN)NC(=O)[C@H](CC(C)C)NC(=O)[C@@H](Cc2ccccc2)NC(=O)[C@H](CCN)NC1=O)[C@@H](C)O [NAB 7061, OA-Thr-Abu-cy[Dab-Dab-DPhe-Leu-Dab-Dab-Thr-]] (Octanoyl-T[Abu][Dab][Dab][dF]L[Dab][Dab]T; lactam 3-C)",MIC of clarithromycin in the presence of 4 μg/ml of NAB 7061,E. cloacae F232,0.094 µg/mL
same,MIC of rifampin in the presence of 4 μg/ml of NAB 7061,E. cloacae F232,0.023 µg/mL
same,MIC of clarithromycin in the presence of 4 μg/ml of NAB 7061,E. cloacae F230,0.047 µg/mL
same,MIC of rifampin in the presence of 4 μg/ml of NAB 7061,E. cloacae F230,0.016 to 0.032 µg/mL
same,MIC of rifampin in the presence of 4 μg/ml of NAB 7061,E. cloacae CCUG52947,0.032 to 0.047 µg/mL
same,Sensitization factor to rifampin,E. cloacae CCUG52947; NAB 7061 4 μg/ml,500-1000
same,Antibacterial activity in the presence of rifampin (growth inhibition area around a well),E. coli IH3080; rifampin 0 μg/ml,0 square millimeters
same,Antibacterial activity in the presence of rifampin (growth inhibition area around a well),E. coli IH3080; rifampin 0.1 μg/ml,113 square millimeters
same,Antibacterial activity in the presence of rifampin (growth inhibition area around a well),E. coli IH3080; rifampin 1.0 μg/ml,155 square millimeters
same,Resulting MIC to rifampin in the presence of NAB7061 (4 μg/ml),[1],≤ 0.125 µg/mL
same,CFU counts in peritoneal fluid,E. coli IH3080 (K1:O18),1.1 (±0.6)×10^6 per ml
same,Antibacterial activity (growth inhibition area around a well),[2]; 4 μg per well,0 square millimeters
same,Antibacterial activity (growth inhibition area around a well),[2]; 10 μg per well,0 square millimeters
same,Antibacterial activity (growth inhibition area around a well),[3]; 4 μg per well,0 square millimeters
same,Antibacterial activity (growth inhibition area around a well),[3]; 10 μg per well,0 square millimeters
